pIC50: −log10 of the molar value.
Key:
PC12 cells = assay: Neuroprotection against rotenone-induced toxicity in PC12 cells (MTT); conditions: Rattus norvegicus, PC-12, 24 h, read-out: IC50 of protection from rotenone-induced toxicity
Method: Control cells were incubated in an equivalent volume of DMSO to a final concentration of 0.3%. Neuroprotective effects of the tested compounds on the toxicity induced by 6-OHDA or rotenone in PC12 cells were evaluated as described previously with slight modifications. In brief, cells were pre-treated with the tested compounds or rasagiline at the indicated concentrations for 4 h. Next, they were exposed to 6-OHDA (50 μM) or rotenone (1 μM) for 24 h. In another set of experiments, the influence of HO-1 inhibitor, ZnPP, on the neuroprotective effects of the tested compounds against 6-OHDA-induced oxidative damage was investigated as previously reported. Briefly, the cells were pre-treated with the tested compounds for 4 h and then incubated with 0.2 µM of ZnPP for 30 min. Subsequently, 6-OHDA was added at a final concentration of 50 µM and incubated for 24 h.
After the desired treatment, cell viability was determined by MTT assay as described previously. Briefly, MTT was added to the cells at the final concentration of 0.5 mg/mL, which was followed by incubation for 3 h at 37 °C. The supernatants were carefully removed, and then, 300 μL of DMSO was added to each well to dissolve formazan precipitate. The absorbance of the dissolved solution was measured at 550 nm using a microplate reader (SpectraMax M2^e, Molecular Devices, Sunnyvale, CA, USA). The cell viability was presented as the percentage of the absorbance measured in the vehicle-treated control cells.

[1] = target: T1, Human recombinant MAO-A (hMAO-A) (Homo sapiens, UniProt P21397); assay: MAO-A enzyme assay (Amplex Red), selectivity; assay type: biochemical
T1 construct: purchased Sigma Aldrich; host or cells: insect cells
T1 sequence (P21397 1-527): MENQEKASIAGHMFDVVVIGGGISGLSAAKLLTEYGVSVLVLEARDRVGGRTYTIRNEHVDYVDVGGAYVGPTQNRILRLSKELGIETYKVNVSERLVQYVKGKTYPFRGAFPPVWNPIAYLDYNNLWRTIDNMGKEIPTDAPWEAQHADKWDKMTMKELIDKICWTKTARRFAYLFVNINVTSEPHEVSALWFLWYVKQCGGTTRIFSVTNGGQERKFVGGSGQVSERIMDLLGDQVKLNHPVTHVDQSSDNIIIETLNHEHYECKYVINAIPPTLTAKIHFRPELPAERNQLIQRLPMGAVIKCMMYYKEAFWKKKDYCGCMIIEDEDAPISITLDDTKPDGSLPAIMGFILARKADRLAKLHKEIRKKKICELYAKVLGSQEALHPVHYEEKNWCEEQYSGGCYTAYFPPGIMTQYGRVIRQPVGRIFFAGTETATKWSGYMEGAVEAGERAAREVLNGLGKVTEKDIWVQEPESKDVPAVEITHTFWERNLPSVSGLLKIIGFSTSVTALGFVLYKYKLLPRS
Method: Biological evaluation of the synthesized melatonin derivatives over both MAO-A and MAO-B was performed as reported previously. A detailed description of the protocol is in the Supplementary Materials.
6. Materials and methods of monoamine oxidase (MAO) enzyme assay
The inhibitory activity of MAO-A, B enzyme of the compounds was evaluated based on previously described method. The MAO activity was measured in relative fluorescence units (RFU) evoked by peroxidase-catalyzed oxidation of Amplex Red® to resorufin, in which H2O2 generated by MAO reaction was used as the […]. Human recombinant MAO-A (hMAO-A) and MAO-B (hMAO-B) enzyme expressed in insect cells were obtained from Sigma Aldrich. The 2 μL of test compound in DMSO (final concentration: 1 nM – 10 μM) was treated with 98 μL of hMAO enzyme solution in 50 mM sodium phosphate buffer (pH 7.4, final protein amounts: ~1.25 μg protein/well for MAO-A and ~2.5 μg protein/well for MAO -B) on 96-well black plate and incubated for 15 min at 37 °C. Then 100 μL of reaction working solution which is mixed solution of 400 μM Amplex Red® (Cayman, final concentration: 200 μM), 2 U/mL horseradish peroxidase ( Sigma-Aldrich, final concentration: 1 U/mL) and 2 mM substrate ( p-tyramine for MAO -A, benzylamine for MAO -B, Sigma-Aldrich, final concentration: 1 mM) in 50 mM sodium phosphate buffer (pH 7.4) were added and incubated for 20 min at 37 °C in the dark. The fluorescent intensity was quantified using a microplate reader (SpectraMax®i3, Molecular Device) with an excitation at 545 nm and an emission at 590 nm. The 50% inhibitory concentrations (IC50) of compounds were determined as the mean ± S.E.M. in triplicate from the dose-response inhibition curves using SigmaPlot® 13.0.
monoamine oxidase inhibitors. Bioorganic & medicinal chemistry 2015, 23, 6486-6496,

HO-1 = HO-1 protein expression in PC12 cells (Western blotting); assay type: cell-based, rat; conditions: for HO-1 protein expression over time: 10 μM, 1 to 12 h, significant at 6–12 h; for increase in HO-1 expression: 30 μM, 12 h
Method: (§1) PC12 cells were seeded on 35 mm dishes at a density of 2 × 10^6 cells/dish and kept at 37 °C in humidified incubator for at least 24 h. Cells were treated with a series of concentrations of the tested compounds for 12 h or with the tested compounds (10 μM) for the indicated time points. Control cells were treated with serum-free media containing 0.3% DMSO instead. Total cell lysates were prepared according to the methods described previously, and stored at −20 °C until used. To evaluate the effects of the tested compounds on the nuclear translocation of Nrf2, nuclear fraction was separated from cytosolic fraction using NE-PER Nuclear and Cytoplasmic Extraction Reagents (Rockford, IL, USA), following the manufacturer’s directions. The protein concentrations were assessed using a BioRad DC protein assay kit (BioRad, Hercules, CA, USA). Equal amounts of proteins (20 µg) were resolved on 12% or 8% gels via sodium dodecyl sulfate-polyacrylamide gel electrophoresis and electrophoretically transferred onto nitrocellulose membrane (Whatman, Clifton, NJ, USA). Subsequently, immunoblotting was performed using anti-HO-1 or anti-Nrf2 antibodies, respectively, according to the procedures reported previously. Beta-actin, a highly conserved cytoskeletal protein, was used as a loading control of cell lysates to normalize the level of HO-1, while nuclear protein lamin B was used as a nuclear loading control to normalize the level of Nrf2 in the nuclear fraction. Finally, the immunoreactive bands corresponding to HO-1 or Nrf2 proteins were visualized using Clarity^TM Western ECL substrate (Bio-Rad, Hercules, CA, USA) using the BioRad ChemiDoc XRS imaging system (Bio-Rad, Hercules, CA, USA).

Nrf2 = assay: Nuclear translocation of Nrf2 in PC12 cells (Western blotting); assay type: cell-based, rat; conditions: for time of peak Nrf2 protein expression: 10 μM; for nuclear translocation of Nrf2: PC12 nuclear fraction, Western blotting
Method: as §1
Nrf2 is a transcription factor involved in the expression of antioxidant defense enzymes in response to oxidative stress. Upon nuclear translocation, Nrf2 binds to antioxidant response elements (AREs), leading to the transcription of ARE genes such as HO-1 [111]. […] Nrf2 protein expression peaked after 6 h of treatment with each compound at 10 μM (Figure 15A,B). […] The nuclear translocation of Nrf2 was increased by 3n and 3r in concentration-dependent manners (Figure 16C,D).

pIC50 [1]	Compound	pIC50 (PC12 cells)	HO-1 protein expression over time (HO-1)	increase in HO-1 expression (HO-1) [fold]	time of peak Nrf2 protein expression (Nrf2) [h]	nuclear translocation of Nrf2 (Nrf2)
< 4.00	O=C(Nc1ccc2[nH]ccc2c1)c1cccc(Br)c1 [3r, 3-Bromo-N-(1H-indol-5-yl)benzamide]	6.06	time-dependent increases	1.7	6	increased
< 4.00	O=C(Nc1ccc2[nH]ccc2c1)c1cccc(Cl)c1 [3n, 3-Chloro-N-(1H-indol-5-yl)benzamide]	5.85	time-dependent increases	1.6	6	increased

Reference: article PMC8533333, “Melatonin Analogues Potently Inhibit MAO-B and Protect PC12 Cells against Oxidative Stress” (Antioxidants, 2021)
